One may read the IC50 as the concentration needed to halve the response being measured. The term solubility denotes the dissolved amount per volume that the medium holds. Low values mean little dissolved substance, high ones much dissolved substance.

The structures appear in SMILES notation.

Data set [1] can be described thus: Plasma free fraction by equilibrium dialysis. The format is in vitro ADME. To be noted: mouse plasma; read-out: Binding Mouse Plasma fu, p. An excerpt: (§1) log P: partition coefficient; lipophilicity measurement. log D: distribution co-efficient; lipophilicity measurement. TPSA: topological polar surface area. Turbidimetric solubility: Test compound solution prepared in DMSO diluted into aqueous buffer. Turbidimetry is used as the end-point by measuring absorbance at 620 nm. FaSSIF: simulated intestinal fluid in fasted state measured at pH 6.5. Hep Cl mouse: in vitro hepatocyte clearance in mouse cells. Hep Cl human: in vitro hepatocyte clearance in human cells. Plasma fu,p: The free fraction of a compound in plasma preparation determined by in vitro equilibrium dialysis. It is understood that only unbound (free) compound is capable of engaging with the target. Brain fu,br: The free fraction of a compound in brain homogenate preparation determined by in vitro equilibrium dialysis. It is understood that only unbound (free) compound is capable of engaging with the target. Clu: in vitro clearance. Clu as defined here is the scaled clearance, in turn calculated from the intrinsic clearance. The intrinsic clearance is the predicted clearance due to hepatic metabolic reactions, determined from incubation of a compound in a hepatocyte preparation. […] Cl in vivo clearance: Pharmacokinetic measurement of the volume of plasma (or any matrix) from which a substance is completely removed per unit time.

The target of data set [2] is Cathepsin B (Homo sapiens, UniProt P07858). In words: Cathepsin IC50, Cathepsin B. Format: biochemical.
Data set [3] can be described thus: Brain homogenate free fraction by equilibrium dialysis. The format is in vitro ADME. To be noted: mouse brain homogenate; read-out: Binding Mouse Brain fu, br.
Excerpt: as §1
(In general: In equilibrium dialysis free small molecules cross a membrane that holds back macromolecules.)

The subject of data set [4] is T1, USP2, USP10, USP16, USP21, USP22, USP25, USP28.
T1 construct: DUB IC50 (μM) USP2, USP10, USP16, USP21, USP22, USP25, USP28; other: range over the seven DUBs
In words: DUB IC50, seven DUBs. The format is biochemical. To be noted: range over the seven DUBs.

For data set [5], the target named is Cathepsin V (Homo sapiens, UniProt O60911). In words: Cathepsin IC50, Cathepsin V. Format: biochemical.
In data set [6] the target is T2, USP30 (Homo sapiens, UniProt Q70CQ3).
T2 construct: purchased Boston Biochem E582
T2 sequence (Q70CQ3 57-517 limits assumed): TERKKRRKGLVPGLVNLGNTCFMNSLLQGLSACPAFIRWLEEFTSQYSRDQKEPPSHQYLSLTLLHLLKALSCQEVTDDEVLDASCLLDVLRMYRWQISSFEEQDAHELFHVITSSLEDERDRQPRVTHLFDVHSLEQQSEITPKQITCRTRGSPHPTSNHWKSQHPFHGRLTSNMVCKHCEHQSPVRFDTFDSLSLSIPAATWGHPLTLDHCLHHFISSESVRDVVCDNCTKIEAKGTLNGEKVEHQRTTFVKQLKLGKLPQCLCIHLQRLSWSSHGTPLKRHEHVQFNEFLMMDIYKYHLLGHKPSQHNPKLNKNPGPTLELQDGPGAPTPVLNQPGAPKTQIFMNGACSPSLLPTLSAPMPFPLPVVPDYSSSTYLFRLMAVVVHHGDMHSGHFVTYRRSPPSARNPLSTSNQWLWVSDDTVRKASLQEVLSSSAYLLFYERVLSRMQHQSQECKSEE
In words: USP30 biochemical IC50 assay (fluorescence polarisation). To be noted: for fold more potent against USP30 than Reference Example A / fold more potent against USP30 than Reference Example B / fold more potent against USP30 than Reference Example C / fold more potent against USP30 than Reference Example D: biochemical assay; for IC50: read-out: USP30 IC50. The method, then: Dilution plates were prepared at 21 times the final concentration (2100 μM for a final concentration of 100 μM) in 50% DMSO in a 96-well polypropylene V-bottom plate (Greiner #651201). A typical 8-point dilution series would be 100, 30, 10, 3, 1, 0.3, 0.1, 0.03 μM final. Reactions were performed in duplicate in black 384 well plates (small volume, Greiner 784076) in a final reaction volume of 21 μl. Either 1 μl of 50% DMSO or diluted compound was added to the plate. USP30 (Boston Biochem #E582) was diluted in reaction buffer (40 mM Tris, pH 7.5, 0.005% Tween 20, 0.5 mg/ml BSA, 5 mM beta-mercaptoethanol) to achieve a final assay concentration of 4 nM, and 10 μl of diluted USP30 was added to the compound. Enzyme and compound were incubated for 30 min at room temp. Reactions were initiated by the addition of 50 nM of TAMRA labelled peptide linked to ubiquitin via an iso-peptide bond as fluorescence polarisation substrate. Reactions were read immediately after addition of substrate and following a 2-hour incubation at room temperature. Readings were performed on a Pherastar Plus (BMG Labtech). λ Excitation 540 nm; Emission 590 nm.
(In general: Polarisation of emitted light reports the rotation of a fluorescent probe.)

Data set [7] is described as follows: Turbidimetric solubility. The format is physicochemical. To be noted: aqueous buffer, kinetic from dmso stock.
Excerpt: as §1

Data set [8] deals with Salmonella typhimurium strains TA98, TA100, TA1535 and TA97a and the Escherichia Coli strain WP2 uvrA pKM101. The experiment in a line: Bacterial reverse mutation assay (Ames). The conditions noted are these: up to 1000 μg/well (5000 μg/plate), with and without metabolic activation. The format is cell-based. The method, then: The bacterial reverse mutation assay (Ames Test) may be used to evaluate the mutagenic properties of compounds of the invention, commonly by using the bacterial strain Salmonella typhimurium, which is mutant for the biosynthesis of the amino acid histidine.
Example 1 was assessed in the bacterial reverse mutation assay (Ames) and in vitro micronucleus assay. All in vitro tests were conducted with and without exogenous metabolic activation using concentrations up to those limited by cytotoxicity or insolubility.
Example 2 was assessed in the bacterial reverse mutation assay (Ames). All in vitro tests were conducted with and without exogenous metabolic activation using concentrations up to those limited by cytotoxicity or insolubility.

Data set [9] deals with Cathepsin S (Homo sapiens, UniProt P25774). The experiment in a line: Cathepsin IC50, Cathepsin S. The format is biochemical.
Chain of Cathepsin S (P25774 115-331, species assumed): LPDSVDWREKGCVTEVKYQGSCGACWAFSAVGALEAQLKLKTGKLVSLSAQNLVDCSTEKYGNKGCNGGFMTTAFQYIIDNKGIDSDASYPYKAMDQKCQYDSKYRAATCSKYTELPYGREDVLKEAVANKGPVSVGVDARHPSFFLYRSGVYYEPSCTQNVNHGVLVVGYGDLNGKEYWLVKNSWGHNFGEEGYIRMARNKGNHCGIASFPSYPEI

Chain of Cathepsin V (O60911 114-334, species assumed): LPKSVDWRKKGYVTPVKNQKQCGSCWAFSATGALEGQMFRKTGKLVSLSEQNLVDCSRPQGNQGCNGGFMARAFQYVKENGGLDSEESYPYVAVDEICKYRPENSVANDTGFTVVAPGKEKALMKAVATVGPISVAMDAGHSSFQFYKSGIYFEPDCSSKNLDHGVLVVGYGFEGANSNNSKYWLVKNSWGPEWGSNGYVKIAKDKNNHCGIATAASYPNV

`COC[C@@H]1C[C@@H](NC(=O)c2ncc(-c3cccc(OC(F)(F)F)c3)o2)CN1C#N` [Example 1, N-((3R,5S)-1-Cyano-5-(methoxymethyl)pyrrolidin-3-yl)-5-(3-(trifluoromethoxy)phenyl)oxazole-2-carboxamide]: the fraction unbound worked out at 0.06 in [1] and 0.043 in [3]. For the same compound, the IC50 in [2] is 44.3 µM; in [4] it was 4.4 to 71.9 µM; in [5] it was 132 µM; in data set [6], 0.005 µM; in data set [9] it was 158 µM. Besides, the “fold more potent against USP30 than Reference Example A” value in [6] came to 14 fold. For the same compound, the “fold more potent against USP30 than Reference Example B” value in [6] is listed as 34 fold. In [6], the “fold more potent against USP30 than Reference Example C” value is on record as 62 fold. Moreover, the “fold more potent against USP30 than Reference Example D” value in data set [6] is listed as 880 fold. Also, the solubility in data set [7] is more than 100 µM. Besides, the “induction of mutations, reverse mutation assay” value in data set [8] (TA98, TA100, TA1535, TA97a and E. coli WP2 uvrA pKM101) is recorded as “did not induce mutations”.
In the case of `C[C@@H]1C[C@@H](NC(=O)c2ncc(-c3cccc(OC(F)(F)F)c3)o2)CN1C#N` [Example 2, N-((3R,5R)-1-Cyano-5-methylpyrrolidin-3-yl)-5-(3-(trifluoromethoxy)phenyl)oxazole-2-carboxamide], the figures for the fraction unbound in data set [1] and in [3] were 0.05 and 0.028, respectively. The concentration for half-maximal inhibition (IC50) was more than 30 µM in data set [2]; not below 4.7 µM in data set [4]; more than 30 µM in [5]; 0.005 µM in [6]; more than 30 µM in data set [9]. For the same compound, the “fold more potent against USP30 than Reference Example A” value in [6] turned out to be 14 fold. Further, the “fold more potent against USP30 than Reference Example B” value in data set [6] came out at 34 fold. The “fold more potent against USP30 than Reference Example C” value in data set [6] was 62 fold. Moreover, the “fold more potent against USP30 than Reference Example D” value in data set [6] is 880 fold. This compound came in with a solubility in [7] of more than 100 µM. Besides, the “induction of mutations, reverse mutation assay” value in data set [8] (TA98 and TA100) was “did not induce mutations”.

The values above are taken from patent publication US20230119013A1, “N-CYANOPYRROLIDINES WITH ACTIVITY AS USP30 INHIBITORS” (MISSION THERAPEUTICS LIMITED, priority 2020, published 2023).
